“And” between values parts separate entries of the source, which are not always exact repeats. Equal entries are not always repeated. “Also recorded” adds a separate entry of the source.
How the values were obtained:
[1] = In vitro stability in 0.1 M PBS (pH 7.4); assay type: physicochemical; conditions: 24 h incubation at 37 °C, purity by TLC
Method: The stability of [^77Br]2 and [^77Br]3 in 0.1 M phosphate-buffered saline (PBS) (pH 7.4) was high (93.6 ± 0.9% and 93.0 ± 0.6%, respectively). There was no significant decomposition after 24 h incubation at 37 °C for either radiotracer.
The stability of radiolabeled compounds, [^77Br]2 and [^77Br]3, were analyzed as described previously. The purities radiolabeled compounds were determined by TLC using chloroform/methanol = 5/1 and 20/1 as a developing solvent for [^77Br]2 and [^77Br]3, respectively. The results were confirmed by RP-HPLC.

[2] = n-octanol/phosphate buffer partition coefficient; assay type: physicochemical; conditions: n-octanol / 0.1 M phosphate buffer pH 7.4; read-out: n-octanol/phosphate buffer partition coefficient (log P)
Method: The n-octanol/phosphate buffer partition coefficients of [^77Br]2 were 2.36 ± 0.06 which were lower than [^77Br]3 (3.02 ± 0.04). These values are lower than radioiodinated compounds, [^125I]4 and [^125I]5 at 2.71 ± 0.03 and 3.19 ± 0.17, respectively.
Partition coefficients of [^77Br]2 and [^77Br]3 into n-octanol and 0.1 M phosphate buffer (PB) pH 7.4 were determined using the method described previously. The measurement was performed in quadruplicate. The partition coefficient was determined by calculating the ratio of cpm/mL of n-octanol to that of buffer and expressed as log P. Radioactivity of each layer were counted by a gamma counter.

BxPC3-luc tumor = assay: Biodistribution in BxPC3-luc tumor-bearing mice; assay type: in vivo, BALB/c nu/nu mice; conditions: for Radioactivity in Blood / Radioactivity in Bone / Radioactivity in Brain / Radioactivity in BxPC3-luc tumor / Radioactivity in Heart / Radioactivity in Kidney / Radioactivity in Large intestine / Radioactivity in Liver / Radioactivity in Lung / Radioactivity in Muscle / Radioactivity in Pancreas / Radioactivity in Small intestine / Radioactivity in Spleen / Radioactivity in Stomach: i.v. co-injection, 1 h
Method: We investigated the biodistribution of the radiotracers in BxPC3-luc tumor-bearing mice by co-injecting [^77Br]2 with [^125I]4 (Table 3), and [^77Br]3 with [^125I]5 (Table 4).
Animal experiments were conducted in strict accordance with the Guidelines for the Care and Use of Laboratory Animals of Kanazawa University. The animal experimental protocols used were approved by the Committee on Animal Experimentation of Kanazawa University (Permit Number: AP-163766). The animals were housed with free access to food and water at approximately 23 °C with a 12 h light/dark schedule. ddY mice (six-week-old, male, 27–30 g) and BALB/c nu/nu mice (four-week-old, female, 12–17 g) were purchased from Japan SLC Inc. (Hamamatsu, Japan). For preparing the tumor-bearing mice, BxPC3-luc cells (5 × 10^6 cells) were subcutaneously injected into the left shoulder of BALB/c nu/nu mice. The tumor reached palpable size after two weeks of the inoculation.
Mice were intravenously injected via the tail with 100 µL of saline solution of [^77Br]2 and [^125I]4 or [^77Br]3 and [^125I]5 (74 kBq, respectively), containing 10% ethanol and 1% tween-80. The ddY mice were sacrificed at 10 min, 1, 4, and 24 h postinjection. Meanwhile, tumor-bearing mice were sacrificed at 1 h postinjection.
Tissues in mice were resected and weighed. The radioactivity of the tissues was counted by a gamma counter and counts were corrected for background radiation. The data were expressed as percent injection dose per gram tissue (%ID/g).

[3] = system: BxPC3-luc cells (PDGFRβ-positive); assay: Cellular uptake study (double tracer method); assay type: cell-based; conditions: BxPC3-luc (PDGFRβ-positive) vs MCF7 (PDGFRβ-negative), 0.5–4 h
Method: Figure 5 Cellular uptake study. Time-dependent accumulation of (a) [^77Br]2 and [^125I]4 (b) [^77Br]3 and [^125I]5 in BxPC3-luc and MCF7 cells. Data were presented as mean ± SD for three samples.
Radiotracer uptake experiments in tumor cells were performed using BxPC3-luc and MCF7 cell lines. To compare the uptake between radiobrominated compounds, [^77Br]2 and [^77Br]3, and the corresponding radioiodinated compounds, [^125I]4 and [^125I]5, the cellular uptake experiments were performed by a double tracer method as described previously with a slight modification[30],[31],[35]. Briefly, the cells were seeded in RPMI 1640 medium containing 10% FBS and antibiotics on six-well plates (2 × 10^5 cells/well) for 24 h in a 5% CO2 incubator at 37 °C. After removal of medium, cells were incubated in medium without FBS containing [^77Br]2 (3.7 kBq/well) and [^125I]4 (3.7 kBq/well) or [^77Br]3 (3.7 kBq/well) and [^125I]5 (3.7 kBq/well) and tween-80 (0.1%) for 0.5, 1, 2 and 4 h. Radioiodinated compounds were prepared as described previously][24]. Cells were washed with ice-cold 1 mL of PBS and dissolved using 0.5 mL of 1 M NaOH and wells were washed with 1 M NaOH aqueous solution (0.5 mL). The radioactivity of pooled basic fractions was counted by a gamma counter. A range between 16 and 71 keV was used for measuring ^125I and between 95 and 700 for ^77Br. When radioactivity of ^77Br was counted, the crossover of ^125I activity into the ^77Br channel was negligible. More than one month after the experiment, the radioactivity of ^125I was determined because at that time ^77Br has been decayed and its radioactivity was negligible. The protein in the cell was quantified by a BCA Protein Assay Kit. All data were expressed as %dose/µg protein.

SMILES	Stability in 0.1 M PBS (pH 7.4) [1]	logP [2]	Tumor-to-blood ratio of radioactivity (BxPC3-luc tumor; 1 h postinjection)	Radioactivity in Blood (BxPC3-luc tumor)	Radioactivity in Bone (BxPC3-luc tumor)	Radioactivity in Brain (BxPC3-luc tumor)	Radioactivity in BxPC3-luc tumor (BxPC3-luc tumor)	Radioactivity in Heart (BxPC3-luc tumor)	Radioactivity in Kidney (BxPC3-luc tumor)	Radioactivity in Large intestine (BxPC3-luc tumor)	Radioactivity in Liver (BxPC3-luc tumor)	Radioactivity in Lung (BxPC3-luc tumor)	Radioactivity in Muscle (BxPC3-luc tumor)	Radioactivity in Pancreas (BxPC3-luc tumor)	Radioactivity in Small intestine (BxPC3-luc tumor)	Radioactivity in Spleen (BxPC3-luc tumor)	Radioactivity in Stomach (BxPC3-luc tumor)	Cellular uptake in BxPC3-luc cells [3]
COCCOc1ccc2c(c1)ncn2-c1ccc2c([77Br])ccc(N3CCC(N)CC3)c2n1 [[^77Br]2, [^77Br]1-{5-Bromo-2-[5-(2-methoxyethoxy)-1H-benzo[d]imidazol-1-yl]quinoline-8-yl}piperidin-4-amine]	93.6 ± 0.9%	2.36 ± 0.06	2.8	0.58 (0.10) %injected dose/gram of tissue	1.15 (0.09) %injected dose/gram of tissue	0.14 (0.03) %injected dose/gram of tissue	1.61 %injected dose/gram of tissue and 1.61 ± 0.24 %injected dose/gram of tissue and 1.61 (0.24) %injected dose/gram of tissue	1.88 (0.33) %injected dose/gram of tissue	17.39 (4.03) %injected dose/gram of tissue	3.22 (0.40) %injected dose/gram of tissue	11.07 (1.04) %injected dose/gram of tissue	10.31 (1.91) %injected dose/gram of tissue	0.94 (0.08) %injected dose/gram of tissue	6.61 (1.00) %injected dose/gram of tissue	51.52 (9.93) %injected dose/gram of tissue	2.94 (0.54) %injected dose/gram of tissue	0.96 (0.20) %injected dose /organ	higher than that in MCF7 cells; also recorded: higher uptake of [^77Br]2 than that of [^77Br]3
COCCOc1ccc2c(c1)ncn2-c1ccc2cccc(N3CCC(NC(=O)c4cccc([77Br])c4)CC3)c2n1 [[^77Br]3, [^77Br]-N-3-bromobenzoyl-1-{2-[5-(2-methoxyethoxy)-1H-benzo[d]imidazol-1-yl]quinolin-8-yl}-piperidin-4-amine]	93.0 ± 0.6%	3.02 ± 0.04	–	1.16 (0.02) %injected dose/gram of tissue	1.32 (0.08) %injected dose/gram of tissue	0.17 (0.02) %injected dose/gram of tissue	1.15 %injected dose/gram of tissue and 1.15 (0.35) %injected dose/gram of tissue	1.83 (0.04) %injected dose/gram of tissue	5.95 (0.16) %injected dose/gram of tissue	5.53 (0.96) %injected dose/gram of tissue	19.82 (2.48) %injected dose/gram of tissue	3.02 (0.51) %injected dose/gram of tissue	1.05 (0.18) %injected dose/gram of tissue	2.15 (0.13) %injected dose/gram of tissue	32.72 (3.10) %injected dose/gram of tissue	2.51 (0.17) %injected dose/gram of tissue	0.67 (0.14) %injected dose /organ	more highly accumulated in BxPC3-luc cells than in MCF7 cells
